The test system of series [1] is Hep-G2. As to the kind of experiment: cytotoxicity of INO2 BA with and without BSO, Hep-G2. It counts as cell-based. As to conditions: Homo sapiens. On the procedure:
(§1) The concentration of BSO was 1 mM for all cell lines except HT 144, where the concentration was 0.25 mM. Cells were seeded in the recommended growth medium at a density of 1.5×10^4 cell/cm^2 into 2 cm^2 wells. Drugs were added simultaneously 4 hours after seeding, and incubation was continued for 48 hours at 37° C. in a 5% CO2 atmosphere. For assessment of drug effects cells were detached by trypsinization and counted in a hemacytometer.
(§2) Cell lines Nos. 1-4 were obtained from Dr. C. Benz, University of California, San Francisco. MDA 468 and MCF-7 human mammary cancer lines, MCF-7-B-ADR drug-resistant mammary cancer line, Du 145 drug-resistant human prostate cancer line, HT 144 human melanoma cell line, Hep-G2 human hepatocellular carcinoma line, and PC-12 rat pheochromocytoma line were obtained from the University of California Cell Culture Facility.

The test system of series [2] is MDA-468. Briefly: cytotoxicity of INO2 BA with and without BSO, MDA-468. Format: cell-based. The note with it: Homo sapiens. The protocol:
as §1, §2

The subject of series [3] is HT 144. Briefly: cytotoxicity of INO2 BA with and without BSO, HT 144. Format: cell-based. As to conditions: Homo sapiens. The protocol:
as §1, §2

The test system of series [4] is Molt-4. Briefly: cytotoxicity of INO2 BA with and without BSO, Molt-4. As to conditions: Homo sapiens, INO2 BA alone, 48 hours. Format: cell-based. The protocol:
as §1, §2

Series [5] has as its system PC-12. As to the kind of experiment: cytotoxicity of INO2 BA with and without BSO, PC-12. Format: cell-based. The note with it: Rattus norvegicus, INO2 BA alone, 48 hours. The protocol: as §1, §2
Series [6] is described as follows: reduction by GSH and ascorbate in in vitro chemical tests. Format: physicochemical.
Series [7] has as its system L-1210 Murine Leukemia Cells. As to the kind of experiment: effect of nitroso- and nitro-compounds in L-1210 murine leukemia cells (suspension). The note with it: drug exposure 18 hours. Format: cell-based. On the procedure: II. I50 and LD100 Values for Nitroso- and Nitro-Compounds in (A) Mammary Cancer Cells (monolayer cultures) and in (B) L-1210 Murine Leukemia Cells (suspension culture).
Cells were seeded at 5×10^4 to 2×10^5 /ml; drugs were added at the time of seeding; drug exposure was for 18 hours.

pIC50: −log10 of the molar value.

With `NC(=O)c1ccc(I)c([N+](=O)[O-])c1` [INO2 BA, 4-iodo-3-nitrobenzamide], the IC100 in series [1] (HepG2, 48 h, read-out: LD100) worked out at 200 µM; in series [2] (48 h, read-out: LD100), 180 µM; in series [3] (HT-144, 48 h, read-out: LD100), 200 µM; in series [4] (read-out: LD100), 196 µM; in series [5] (read-out: LD100), 120 µM. The pIC50 is 3.92 in series [1] (HepG2, INO2 BA alone, 48 hours, read-out: I50); 4.10 in series [2] (INO2 BA alone, 48 hours, read-out: I50); 4.00 in series [3] (HT-144, INO2 BA alone, 48 hours, read-out: I50); 4.15 in series [4] (read-out: I50); 4.22 in series [5] (read-out: I50).
With `NC(=O)c1cccc(N=O)c1` [NOBA, 3-nitrosobenzamide], in series [6], the “reduction to the corresponding hydroxyl amines” value was “rapidly reduced”. Besides, in series [7], the I50 turned out to be 7.5 nanomoles/10^5 cells and the LD100 is given as 15 nanomoles/10^5 cells.

The values are drawn from patent publication US5877185A, “Synergistic compositions useful as anti-tumor agents” (priority 1995, dated 1999).
